From patent US11814444B2, “Cyclic polypeptides for PCSK9 inhibition” (Ra Pharmaceuticals, Inc., priority 2018, dated 2023)
pIC50: −log10 of the molar value. Numbered stars: 1 amine (or outer) side, 2 acyl side, 3 side chain; on linkers, the order of the positions; unused ones are H or OH. Bridge positions count the residues as written; N and C are the ends. Square brackets hold non-standard residues; d marks the D form. Peptide text beside a SMILES is read from it. Trp(7-aza) = N[C@@H](Cc1c[nH]c2ncccc12)C(=O)O; Gly(piperidin-4-yl) = N[C@H](C(=O)O)C1CCNCC1; NMePhe(4-F) = CN[C@@H](Cc1ccc(F)cc1)C(=O)O; X7 = O=C(CCSCc1cccc(CSCCN[*:1])c1)[*:2]; 1Nal = N[C@@H](Cc1cccc2ccccc12)C(=O)O; Ac4c(3,3-F2) = NC1(C(=O)O)CC(F)(F)C1; mXylylene = c1cc(C[*:1])cc(C[*:2])c1; Ala(cPr) = N[C@@H](CC1CC1)C(=O)O; 2Pal = N[C@@H](Cc1ccccn1)C(=O)O; 4Pal = N[C@@H](Cc1ccncc1)C(=O)O; PEG4 = NCCOCCOCCOCCOCCC(=O)O; Tle = CC(C)(C)[C@H](N)C(=O)O; αMeV = CC(C)[C@](C)(N)C(=O)O; NMeV = CN[C@H](C(=O)O)C(C)C; S5 = C=CCCC[C@](C)(N)C(=O)O; Nva = CCC[C@H](N)C(=O)O; Aib = CC(C)(N)C(=O)O; Mpa = O=C(O)CCS

Tests used:
PCSK9 = PCSK9 (Homo sapiens, UniProt Q8NBP7); assay: PCSK9 Alexa FRET Standard assay (displacement of AlexaFluor647 tagged cyclic peptide Reagent A); format: binding; conditions: 0.5 nM PCSK9, 20 nM AF cyclic peptide Reagent A
Sequence of PCSK9 (Q8NBP7 153-692): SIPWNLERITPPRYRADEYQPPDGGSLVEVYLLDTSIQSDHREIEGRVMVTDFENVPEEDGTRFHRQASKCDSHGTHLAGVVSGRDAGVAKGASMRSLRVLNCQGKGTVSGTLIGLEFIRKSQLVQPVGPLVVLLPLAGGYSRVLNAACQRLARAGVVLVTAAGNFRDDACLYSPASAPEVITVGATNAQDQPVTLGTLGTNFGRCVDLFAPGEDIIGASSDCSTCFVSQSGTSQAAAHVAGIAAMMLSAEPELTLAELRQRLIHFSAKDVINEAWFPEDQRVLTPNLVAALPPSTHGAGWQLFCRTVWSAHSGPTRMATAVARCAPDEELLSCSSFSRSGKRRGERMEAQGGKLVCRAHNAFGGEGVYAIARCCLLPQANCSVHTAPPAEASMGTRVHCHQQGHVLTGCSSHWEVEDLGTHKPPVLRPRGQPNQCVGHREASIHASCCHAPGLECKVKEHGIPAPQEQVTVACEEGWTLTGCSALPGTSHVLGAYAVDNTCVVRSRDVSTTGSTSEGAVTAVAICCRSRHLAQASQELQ
Procedure: A solution containing 1 nM biotinylated PCSK9+2.5 nM Lance Streptavidin Europium (Strep-Eu) was made in 50 mM HEPES pH 7.4, 0.15 M NaCl, 5 mM CaCl2), 0.01% BSA, and 0.01% Surfactant P20. A separate solution containing 40 nM of the AlexaFluor tagged cyclic peptide was made in the same buffer system. An Echo was used to transfer 0.750 ul of compound to an assay plate followed by the addition of 15 ul of PCSK9+Stept-Eu and 15 ul of AF peptide. The final assay volume was 30.750 ul containing 0.5 nM PCSK9, 1.25 nM Strep-Eu, and 20 nM AF cyclic peptide. The reaction was incubated at room temperature for at least two hours prior to fluorescence measurements using an Envision Multilabel Reader. IC50 values were determined by fitting data to a sigmoidal dose-response curve using nonlinear regression. Ki was then calculated from the IC50 and the KD of AF cyclic peptide. Counts (B-counts) of the europium-labeled PCSK9 were followed to observe if compounds were […]. A fall off of the B-counts likely indicated a false positive of inhibition. Data from this procedure was reported as “A=‘numerical value’ (nanomolar)”

[1] = target: human PCSK9 / human LDLR EGFa domain interaction (Homo sapiens, UniProt Q8NBP7); assay: TR-FRET assay of inhibition of the PCSK9-LDLR protein-protein interaction; format: binding; conditions: 20 nM avitag-biotinylated human PCSK9, 20 nM his-tagged human LDLR EGFa domain, 2 hours, room temperature
Sequence of human PCSK9 / human LDLR EGFa domain interaction (Q8NBP7 153-692): as above
Sequence of human PCSK9 / human LDLR EGFa domain interaction (Q8NBP7 31-152 partner limits assumed): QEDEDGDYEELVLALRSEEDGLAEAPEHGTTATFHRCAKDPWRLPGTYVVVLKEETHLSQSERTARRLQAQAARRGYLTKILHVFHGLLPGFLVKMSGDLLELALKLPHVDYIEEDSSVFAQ
Procedure: A time-resolved fluorescence resonance energy (TR-FRET) assay was used to measure inhibition of the PCSK9-LDLR protein-protein interaction. Briefly, 20 nM avitag-biotinylated human PCSK9 was incubated with 20 nM his-tagged human LDLR EGFa domain in the presence of 5 nM LANCE Ulight Streptavidin (Perkin Elmer) and 5 nM europium-Anti-6×His (Perkin Elmer) for 2 hours covered at room temperature in buffer containing 50 mM HEPES, 150 mM NaCl, 5 mM CaCl2), 0.01% BSA and 0.01% Surfactant P20. Compounds were tested in dose-response and concentrations giving half-maximal inhibition calculated using a 4-parameter fit equation.

| SMILES | pIC50 (PCSK9) | pIC50 [1] |
| --- | --- | --- |
| CCC[C@H](NC(C)=O)C(=O)N[C@H]1CSCc2cccc(c2)CSC[C@@H](C(N)=O)NC(=O)[C@H]([C@@H](C)O)NC(=O)[C@H](CCC)NC(=O)[C@H](Cc2ccc(O)cc2)NC(=O)[C@H](C)NC(=O)[C@H](CCC)NC(=O)[C@H](Cc2c[nH]c3ncccc23)NC(=O)[C@H]([C@@H](C)O)NC(=O)[C@H](Cc2cnc[nH]2)NC(=O)[C@H](Cc2ccc(O)cc2)NC(=O)[C@H](C(C)(C)C)NC1=O [Compound 258] (Ac-[Nva]C[Tle]YHT[Trp(7-aza)][Nva]AY[Nva]TC-NH2; linker 2-13 via mXylylene) | 4.00 to 4.30 | – |
| CCC[C@@H]1NC(=O)[C@H](Cc2c[nH]c3ncccc23)NC(=O)[C@H]([C@@H](C)O)NC(=O)[C@H](Cc2c[nH]cn2)NC(=O)[C@H](Cc2ccc(O)cc2)NC(=O)[C@H](C(C)(C)C)NC(=O)CCSCc2cccc(c2)CSC[C@@H](C(N)=O)NC(=O)[C@H]([C@@H](C)O)NC(=O)[C@H](CCC)NC(=O)[C@H](Cc2ccc(F)cc2)N(C)C(=O)[C@H](CCC(=O)O)NC1=O [Compound 267] ([Mpa][Tle]YHT[Trp(7-aza)][Nva]E[NMePhe(4-F)][Nva]TC-NH2; linker 1-12 via mXylylene) | 4.00 to 4.30 | – |
| CC(=O)N[C@H]1CSCc2cccc(c2)CSC[C@H](C(N)=O)NC(=O)[C@H]([C@@H](C)O)NC(=O)[C@H](C)NC(=O)[C@H](Cc2ccc(O)cc2)NC(=O)[C@H](CCC(=O)O)NC(=O)[C@H](C)NC(=O)[C@H](Cc2c[nH]c3ncccc23)NC(=O)[C@H]([C@@H](C)O)NC(=O)[C@H](Cc2c[nH]cn2)NC(=O)[C@H](Cc2ccc(O)cc2)NC(=O)[C@H](C(C)(C)C)NC1=O [Compound 245] (Ac-C[Tle]YHT[Trp(7-aza)]AEYAT[dC]-NH2; linker 1-12 via mXylylene) | 4.00 to 4.30 | – |
| CCC[C@@H]1NC(=O)[C@H](Cc2c[nH]c3ncccc23)NC(=O)[C@H]([C@@H](C)O)NC(=O)[C@H](Cc2c[nH]cn2)NC(=O)[C@H](Cc2ccc(O)cc2)NC(=O)[C@H](C(C)(C)C)NC(=O)CCSCc2cccc(c2)CSC[C@@H](C(N)=O)NC(=O)[C@H]([C@@H](C)O)NC(=O)[C@H](CC2CC2)NC(=O)[C@H](Cc2ccc(O)cc2)NC(=O)[C@H](CCC(=O)O)NC1=O [Compound 262] ([Mpa][Tle]YHT[Trp(7-aza)][Nva]EY[Ala(cPr)]TC-NH2; linker 1-12 via mXylylene) | 4.68 to 6.00 | – |
| CCC[C@@H]1NC(=O)[C@H](Cc2c[nH]c3ncccc23)NC(=O)[C@H]([C@@H](C)O)NC(=O)[C@H](Cc2ccccn2)NC(=O)[C@H](Cc2ccc(O)cc2)NC(=O)[C@H](C(C)(C)C)NC(=O)CCSCc2cccc(c2)CSC[C@@H](C(N)=O)NC(=O)[C@H]([C@@H](C)O)NC(=O)[C@H](CCC)NC(=O)[C@H](Cc2ccc(O)cc2)NC(=O)[C@H](CCC(=O)O)NC1=O [Compound 114] ([Mpa][Tle]Y[2Pal]T[Trp(7-aza)][Nva]EY[Nva]TC-NH2; linker 1-12 via mXylylene) | 4.30 to 4.68 | – |
| CCC[C@H](NC(C)=O)C(=O)N[C@H]1CSCc2cccc(c2)CSC[C@@H](C(N)=O)NC(=O)[C@H]([C@@H](C)O)NC(=O)[C@H](CCC)NC(=O)[C@H](Cc2c[nH]c3ncccc23)NC(=O)[C@H](CCC(=O)O)NC(=O)[C@H](CCC)NC(=O)[C@H](Cc2c[nH]c3ncccc23)NC(=O)[C@H]([C@@H](C)O)NC(=O)[C@H](Cc2c[nH]cn2)NC(=O)[C@H](Cc2ccc(O)cc2)NC(=O)[C@H](C(C)(C)C)NC1=O [Compound 243] (Ac-[Nva]C[Tle]YHT[Trp(7-aza)][Nva]E[Trp(7-aza)][Nva]TC-NH2; linker 2-13 via mXylylene) | 4.00 to 4.30 | – |
| CCC[C@@H]1NC(=O)[C@H](Cc2ccncc2)NC(=O)[C@H]([C@@H](C)O)NC(=O)[C@H](Cc2c[nH]cn2)NC(=O)[C@H](Cc2ccc(O)cc2)NC(=O)[C@H](C(C)(C)C)NC(=O)CCSCc2cccc(c2)CSC[C@@H](C(N)=O)NC(=O)[C@H]([C@@H](C)O)NC(=O)[C@H](CCC)NC(=O)[C@H](Cc2ccc(O)cc2)NC(=O)[C@H](CCC(=O)O)NC1=O [Compound 270] ([Mpa][Tle]YHT[4Pal][Nva]EY[Nva]TC-NH2; linker 1-12 via mXylylene) | 4.00 to 4.30 | – |
| CCC[C@@H]1NC(=O)[C@H](Cc2c[nH]c3ncccc23)NC(=O)[C@H]([C@@H](C)O)NC(=O)[C@H](Cc2c[nH]cn2)NC(=O)[C@H](Cc2ccc(O)cc2)NC(=O)[C@H](C(C)(C)C)NC(=O)CCSCc2cccc(c2)CSC[C@@H](C(N)=O)NC(=O)[C@H]([C@@H](C)O)NC(=O)[C@H](C2CCNCC2)NC(=O)[C@H](Cc2ccc(O)cc2)NC(=O)[C@H](CCC(=O)O)NC1=O [Compound 331] ([Mpa][Tle]YHT[Trp(7-aza)][Nva]EY[Gly(piperidin-4-yl)]TC-NH2; linker 1-12 via mXylylene) | – | 4.68 to 6.00 |
| CCC[C@@H]1NC(=O)[C@H](Cc2c[nH]c3ncccc23)NC(=O)[C@H]([C@@H](C)O)NC(=O)[C@@H]2CCCN2C(=O)[C@H](Cc2ccc(O)cc2)NC(=O)[C@H](C(C)(C)C)NC(=O)CCSCc2cccc(c2)CSC[C@@H](C(=O)NCCOCCOCCOCCOCCC(N)=O)NC(=O)[C@H]([C@@H](C)O)NC(=O)[C@H](CCC)NC(=O)[C@H](Cc2ccc(O)cc2)NC(=O)[C@H](C)NC1=O [Compound 163] ([Mpa][Tle]YPT[Trp(7-aza)][Nva]AY[Nva]TC[PEG4]-NH2; linker 1-12 via mXylylene) | – | 6.00 to 7.00 |
| CC(C)[C@H]1C(=O)N[C@@H](Cc2ccccc2)C(=O)N2CCC[C@H]2C(=O)N[C@@H]([C@@H](C)O)C(=O)N[C@@H](Cc2cccc3ccccc23)C(=O)NC(C)(C)C(=O)N[C@@H](C)C(=O)N[C@@H](Cc2ccccc2)C(=O)N[C@@](C)(C(C)C)C(=O)N[C@@H](C)C(=O)NCCSCc2cccc(c2)CSCCC(=O)N1C [Compound 143] (cyclo([1Nal][Aib]AF[αMeV]A[X7][NMeV]FPT)) | – | 4.68 to 6.00 |
| CCC[C@@H]1NC(=O)[C@H](Cc2c[nH]c3ncccc23)NC(=O)[C@H]([C@@H](C)O)NC(=O)[C@@H]2CCCN2C(=O)[C@H](Cc2ccc(O)cc2)NC(=O)[C@H](C(C)(C)C)NC(=O)CCSCc2cccc(c2)CSC[C@@H](C(N)=O)NC(=O)[C@H]([C@@H](C)O)NC(=O)[C@H](CCC(=O)O)NC(=O)[C@H](Cc2ccc(O)cc2)NC(=O)[C@H](C)NC1=O [Compound 160] ([Mpa][Tle]YPT[Trp(7-aza)][Nva]AYETC-NH2; linker 1-12 via mXylylene) | – | 6.00 to 7.00 |
| CCC[C@@H]1NC(=O)[C@H]([C@@H](C)O)NC(=O)[C@@H]2CCCN2C(=O)[C@H](Cc2ccc(O)cc2)NC(=O)[C@H](C(C)(C)C)NC(=O)[C@@H](NC(C)=O)CSCc2cccc(c2)CSC[C@@H](C(N)=O)NC(=O)[C@H]([C@@H](C)O)NC(=O)[C@](C)(C(C)C)NC(=O)[C@H](Cc2ccc(O)cc2)NC(=O)[C@H](C)NC1=O [Compound 173] (Ac-C[Tle]YPT[Nva]AY[αMeV]TC-NH2; linker 1-11 via mXylylene) | – | 6.00 to 7.00 |
| CCC[C@H](NC(C)=O)C(=O)N[C@H]1CSCc2cccc(c2)CSC[C@@H](C(N)=O)NC(=O)[C@H]([C@@H](C)O)NC(=O)[C@H](CCC)NC(=O)[C@H](Cc2ccc(O)cc2)NC(=O)[C@H](CCC(=O)O)NC(=O)[C@H](CCC)NC(=O)[C@H](Cc2c[nH]c3ncccc23)NC(=O)[C@H]([C@@H](C)O)NC(=O)[C@@H]2CCCN2C(=O)[C@H](Cc2ccc(O)cc2)NC(=O)[C@H](C(C)(C)C)NC1=O [Compound 153] (Ac-[Nva]C[Tle]YPT[Trp(7-aza)][Nva]EY[Nva]TC-NH2; linker 2-13 via mXylylene) | – | 6.00 to 7.00 |
| CCC[C@@H]1NC(=O)[C@H](Cc2ccc(O)cc2)NC(=O)[C@H](C)NC(=O)[C@@](C)(NC(=O)[C@H](Cc2cccc3ccccc23)NC(=O)[C@@H](NC(=O)[C@@H]2CCCN2C(=O)[C@H](Cc2ccc(O)cc2)NC(=O)[C@@H](NC(C)=O)C(C)(C)C)[C@@H](C)O)CCC/C=C/CCC[C@@](C)(C(N)=O)NC1=O [Compound 078] (Ac-[Tle]YPT[1Nal][S5]AY[Nva][S5]-NH2; staple (E) 6-10) | – | 4.68 to 6.00 |
| CCC[C@@H]1NC(=O)[C@H](Cc2c[nH]c3ncccc23)NC(=O)[C@H]([C@@H](C)O)NC(=O)[C@@H]2CCCN2C(=O)[C@H](Cc2ccc(O)cc2)NC(=O)[C@H](C(C)(C)C)NC(=O)CCSCc2cccc(c2)CSC[C@@H](C(N)=O)NC(=O)[C@H](CCC(=O)O)NC(=O)[C@H](CCC)NC(=O)[C@H](Cc2ccc(O)cc2)NC(=O)[C@H](C)NC1=O [Compound 159] ([Mpa][Tle]YPT[Trp(7-aza)][Nva]AY[Nva]EC-NH2; linker 1-12 via mXylylene) | – | 4.68 to 6.00 |
| CC(=O)N[C@H]1CSCc2cccc(c2)CSC[C@H](C(N)=O)NC(=O)[C@H]([C@@H](C)O)NC(=O)[C@](C)(C(C)C)NC(=O)[C@H](Cc2ccc(O)cc2)NC(=O)[C@H](C)NC(=O)C2(CC(F)(F)C2)NC(=O)[C@H](Cc2c[nH]c3ncccc23)NC(=O)[C@H]([C@@H](C)O)NC(=O)[C@@H]2CCCN2C(=O)[C@H](Cc2ccc(O)cc2)NC(=O)[C@H](C(C)(C)C)NC1=O [Compound 195] (Ac-C[Tle]YPT[Trp(7-aza)][Ac4c(3,3-F2)]AY[αMeV]T[dC]-NH2; linker 1-12 via mXylylene) | – | 4.68 to 6.00 |
